Laboratory results published in patent US9155761B2, “Method for the treatment of cancer” (UNIVERSITY COLLEGE CORK, NATIONAL UNIVERSITY OF IRELAND, …, priority 2009, dated 2015).
Entries after “also recorded” stand apart in the source; their conditions may differ.

Experiments:
Assay type in all cases: cell-based, human
[1] = system: KYSE450; experiment: Evaluation of cell death morphology by light microscopy
Experimental: (§1) Morphological features of cells treated with 5-fluorouracil (5-FU)/cisplatin, without and with 3-MA, LY294002, Bafilomycin, Lithium chloride, rapamycin or HA14-I were examined by light microscopy. Morphologies of treated cells were examined 24 and 48 hours post treatment, treatment times are referred to in figure legends. Aliquots of vehicle control and drug treated cells were cytospun onto glass slides and stained with Rapi-Diff (Braidwood laboratories, UK). The extent of apoptotic and non-apoptotic cell death was determined by counting the cells in at least three fields of view per slide, with an average of ˜100 cells per field. Apoptotic cell death is characterized by the presence of two or more of the following morphological features: cell shrinkage, chromatin condensation, DNA degradation and fragmentation into ‘apoptotic bodies’, within an intact plasma membrane. Autophagic cell death was identified by clear elevation of cytoplasmic vesicles, loss of cytoplasmic material, pyknosis of the nuclear material and an intact nuclear membrane. Cytospin images are representative of at least three independent experiments.

[2] = system: OE19; experiment: as above; details: 5-FU (50 μM) or cisplatin (40 μM), 48 hours
Experimental: as §1

[3] = system: OE33; experiment: as above; details: 5-FU (50 μM) or cisplatin (40 μM), 48 hours
Experimental: as §1

[4] = system: LC3 in KYSE450 cells; experiment: LC3 / GFP-LC3 processing and distribution (Western blot, fluorescence microscopy)
Experimental: (§2) Total cellular protein extracts were prepared by scraping the cells into modified RIPA buffer (50 mM Tris HCl (pH 7.4), 150 mM NaCl, 0.25% Sodium deoxycholate, 1% Igepal, protease inhibitors 1 mM EDTA, 1× Pefabloc, 1× protease inhibitor cocktail, 1 mM Na3VO4, 1 mM NaF). All protein samples were separated by SDS-PAGE (10/12%) and electrophoretically transferred onto nitrocellulose membrane. All primary antibodies were incubated overnight at 4° C.: anti-phospho mTOR (Ser 2448) and anti-p70^S6K (Thr 389) (Cell Signaling Technologies, UK), anti-Beclin-1 (BD Biosciences, UK) and anti-LC3 (Medical & Biological Laboratories, Japan). The membranes were incubated with the relevant horseradish peroxidase conjugated secondary antibodies (DakoCytomation, Dublin) and detected by chemiluminescence (ECL Amersham, UK).
(§3) To visualize and quantify the formation of autophagic vesicles, the green fluorescent protein (GFP)-LC3 (pEGFP-LC3) expression vector, kindly supplied by Dr. T. Yoshimori (National Institute of Genetics, Japan) was used. Cells were transiently transfected with the Amaxa electroporation system according to the supplier's protocol. Twenty-four hours post transfection, cells were treated with 5-FU and/or Cisplatin, fixed in 4% paraformaldehyde in PBS and transferred onto slides using a non-fluorescent fixative for analysis by fluorescence microscopy. Alternatively, Western Blot analysis was used to assess the expression and processing of LC3. […] The membrane sequestered, lipid-conjugated form of LC3-II remains with the autophagosome membrane after the vesicle has formed, and levels of both isoform are detected by Western Blot. Transfection efficiency was consistent for a given cell line, OE33 and KYSE450 cell lines (˜60-70%) compared to OE19 and OE21 cell lines (˜30%).

[5] = system: LC3 in OE19 cells; experiment: as above
Experimental: as §2, §3

[6] = system: LC3 in OE21 cells; experiment: as above
Experimental: as §2, §3

[7] = system: LC3 in OE33 cells; experiment: as above
Experimental: as §2, §3

[8] = 5-FU or cisplatin (images not shown)

Compound: O=c1[nH]cc(F)c(=O)[nH]1 [5-FU, 5-fluorouracil]
- cell death morphology ([1]; 5-FU (50 μM) or cisplatin (40 μM), 48 hours): predominantly non-apoptotic morphology
- morphology ([1]; HA14-1 (5 μM) and/or 5-FU (50 μM), 24 hours): causes autophagic phenotype
- cell death morphology [2]: predominantly non-apoptotic morphology
- cell death morphology [3]: predominantly apoptotic cell death morphology
- GFP-LC3 distribution (fluorescence microscopy) ([4]; 5-FU or cisplatin (data not shown)): Redistribution of GFP-LC3 from a diffuse cytosolic to a punctate autophagosome-associated pattern
- LC3II levels (Western blot, GFP-LC3) ([4]; 5-FU, 24 hours): significant increase in LC3II levels
- GFP-LC3 distribution (fluorescence microscopy) ([5]; 5-FU (25 & 50 μM) or cisplatin (10 & 25 μM)): Redistribution of GFP-LC3 from a diffuse cytosolic to a punctate autophagosome-associated pattern; also recorded: bright punctate patterns of GFP-LC3 fluorescence
- LC3II levels (Western blot, GFP-LC3) ([5]; 5-FU, 24 hours): significant increase in LC3II levels
- GFP-LC3 distribution (fluorescence microscopy) [6, 8]: Diffuse cytoplasmic localization of GFP-LC3
- induction of autophagosome-associated LC3II band (Western blot) ([6]; 24 and 48 hours): no induction of a lower autophagosome-associated LC3II-band
- GFP-LC3 distribution (fluorescence microscopy) [7, 8]: Diffuse cytoplasmic localization of GFP-LC3
- induction of autophagosome-associated LC3II band (Western blot) ([7]; 24 and 48 hours): no induction of a lower autophagosome-associated LC3II-band
